Test [1] deals with pyramidal cell activity in hippocampus slices. Briefly: In vitro hippocampus slice population spike in presence of isolated alkaloids. Format: cell-based, rat. The following applies: for attenuation of population spike amplitude, single shock stimuli / attenuation of population spike amplitude, theta burst stimuli: two concentrations in the nanomolar range; for attenuation of population spike amplitude, single shock stimuli: FIG. 5; for attenuation of population spike amplitude, theta burst stimuli: FIG. 6. The text has this:
Electric stimulation of Schaffer Collaterals leads to release of glutamate resulting in excitation of the postsynaptic pyramidal cells. The result of the electric stimulation can be recorded as so-called population spike (pop-spike). The amplitude of the resulting population spike represents the number of recruited pyramidal cells. The model of hippocampal pyramidal cell activity reflects the effects of physiological interventions by an increase or decrease of the amplitude of the population spike.
Hippocampus slices were obtained from 19 adult male Sprague-Dawlay rats (Charles River Wiga, Sulzbach, Germany). Rats were kept under a reversed day/night cycle for 2 weeks prior to the start of the experiments to allow recording of in vitro activity from slices during the active phase of their circadian rhythm (Dimpfel, W., Dalhoff, B., Hofmann, W., Schlüter, G. (1994) Electrically evoked potentials in the rat hippocampus slice in the presence of aminophylline alone and in combination with quinolones (European Neuropsychopharmacology, 4, 151-156).
Preparation of the slices was performed exactly as reported earlier (Dimpfel, W. and Hoffmann, J. A. (2011) Effects of rasagiline, its metabolite aminoindan and selegiline on glutamate receptor mediated signalling in the rat hippocampus slice in vitro (BMC Pharmacology, 11, 2)). Animals were exsanguinated under ether anaesthesia; the brain was removed in total and the hippocampal formation was isolated under microstereoscopic sight. The midsection of the hippocampus was fixed to the table of a vibrating microtome (Rhema Labortechnik, Hofheim, Germany) using a cyanoacrylate adhesive, submerged in chilled bicarbonate-buffered saline (artificial cerebrospinal fluid (ACSF): NaCl: 124 mM, KCl: 5 mM, CaCl2: 2 mM, MgSO4: 2 mM, NaHCO3: 26 mM, glucose: 10 mM, and cut into slices of 400μ thickness. All slices were pre-incubated for at least 1 h in Carbogen saturated ACSF (pH 7.4) in a pre-chamber before use (Dimpfel, W., Spüler, M., Dalhoff, A., Hoffmann, W., Schlüter, G. (1991) Hippocampal activity in the presence of quinolones and fenbufen in-vitro (Antimicrobial Agents and Chemotherapy, 35, 1142-1146).
During the experiment the slices were held and treated in a special superfusion chamber (List Electronics, Darmstadt, Germany) according to (Haas, H L., Schaerer, B., Vosmansky, M. (1979). A simple perfusion chamber for the study of nervous tissue slices in vitro (J Neurosci Methods, 1, 323-5), at 35° C. (Schiff, S J., Somjen, G G. (1985) The Effects of Temperature on Synaptic Transmission in Hippocampal Tissue Slices (Brain Research, 345, 279-284)). The preparation was superfused with ACSF at 180-230 ml/h. Electric stimulation (200 μA constant current pulses of 200 μs pulse width) of the Schaffer Collaterals within the […] area and recording of extracellular field potentials from the pyramidal cell layer of CA1 (Dimpfel, W., Spüler, M., Dalhoff, A., Hoffmann, W., Schlüter, G. (1991) Hippocampal activity in the presence of quinolones and fenbufen in-vitro (Antimicrobial Agents and Chemotherapy, 35, 1142-1146).
Measurements were performed at 10 min intervals to avoid potentiation mechanisms. Four stimulations—each 20 seconds apart—were averaged for each time point. After obtaining three stable responses to single stimuli (SS) long-term potentiation was induced by applying a theta burst type pattern (TBS). […]

Test [2] has as its system AMPA mediated transmission. Briefly: In vitro hippocampus slice population spike with Fluorowillardine alone or together with alkaloids. The following applies: isolated alkaloids; mean of 3 slices; FIG. 7. It counts as cell-based, rat. The method, then:
Four important alkaloids contained in Zembrin® namely, mesembrenone, mesembrenol, mesembrine and mesembranol, were individually isolated. Similar tests to those described in example A were carried out on each of these isolated alkaloids, in the presence of two concentrations in the nanomolar range and the results are illustrated in FIGS. 5 to 7. In FIG. 5, the statistical significance of p<0.01 is marked by stars. In FIG. 6, the statistical significance of p<0.01 is marked by stars. In FIG. 7, mean values of 3 slices are depicted for each recording condition. Statistical significance between Fluorowillardine alone and the presence of the alkaloids is documented by stars. (**=p<0.05; ***=p<0.01).

Molecules are shown by their SMILES.

As to `COc1ccc(C23CCC(O)CC2N(C)CC3)cc1OC` (stereo not shown) [mesembranol], in test [1], the “attenuation of population spike amplitude, single shock stimuli” value is given as “stronger attenuation” and the “attenuation of population spike amplitude, theta burst stimuli” value is on record as “stronger attenuation”. Moreover, in test [2], the “interaction with AMPA mediated transmission (population spike with Fluorowillardine alone or with alkaloid)” value is reported as “interact with AMPA mediated transmission”.
Consider `COc1ccc(C23C=CC(O)CC2N(C)CC3)cc1OC` (stereo not shown) [mesembrenol], for which, in test [1], the “attenuation of population spike amplitude, single shock stimuli” value is “stronger attenuation” and the “attenuation of population spike amplitude, theta burst stimuli” value is “stronger attenuation”. Moreover, in test [2], the “interaction with AMPA mediated transmission (population spike with Fluorowillardine alone or with alkaloid)” value was “interact with AMPA mediated transmission”.
For the molecule `COc1ccc([C@@]23CCC(=O)C[C@@H]2N(C)CC3)cc1OC` [mesembrine, reference compound], the “concentration exerting a similar extent of attenuation of population spike amplitude” value in test [1] (FIGS. 5 and 6) turned out to be 8.65 nM.

For the origin of these results see patent US12059404B2, “Mesembrenol and/or mesembranol for prophylaxis and treatment of patients suffering from epilepsy and associated diseases” (HG&H Pharmaceuticals (Pty) Ltd, priority 2017, dated 2024).
